Source: patent US20040147006A1, “Peptides that bind to DNA and inhibit DNA replication, and methods of use” (priority 2001, published 2004)
“Also recorded” adds a separate entry of the source. Where two headings read alike, the source gives them in different places.

What was measured:
[1] = tested on: double stranded oligonucleotide containing the SV40 core origin (SEQ ID NO: 24); assay: Nitrocellulose filter binding of peptide to DNA
Protocol: Nitrocellulose filter binding reactions. Assay for the ability of NLS based peptides to bind to DNA were performed using published methods (Sreekumar, K. A., et al., 2000, In, L. Raptis (ed.), Methods in Molecular Biology: SV40 Protocols; Humana Press, Totowa, N.J. p. 49-67). Reactions (20 μl) contained 7 mM MgCl2, 0.5 mM DTT, 4 mM AMP-PNP, 40 mM creatine phosphate (di-Tris salt pH7.7), 0.48 μg of creatine phosphokinase, 0.2 mg of bovine serum albumin per ml, 0.8 μg of Hae III-digested pBR322 DNA, about 25 fmol of a given oligonucleotide (about 10^6 cpm/pmol) and the indicated peptide. After incubation for 20 min at 37° C., the mixtures were filtered under suction through alkali-treated nitrocellulose filters (Millipore type HAWP; pore size, 0.4 μm; stored in 100 mM Tris-HCl, pH7.5). The filters were then washed with 5 ml of 100 mM Tris-HCl, pH 7.5, and were dried and counted in a Beckman LS 3801 scintillation counter.

T-ag helicase ATPase = molecular target: T1, T-ag helicase ATPase (Simian virus 40, UniProt P03070); format: biochemical, SV40; conditions: duplicate lanes, FIG. 13
T1 construct: made in house
T1 sequence (P03070 whole entry): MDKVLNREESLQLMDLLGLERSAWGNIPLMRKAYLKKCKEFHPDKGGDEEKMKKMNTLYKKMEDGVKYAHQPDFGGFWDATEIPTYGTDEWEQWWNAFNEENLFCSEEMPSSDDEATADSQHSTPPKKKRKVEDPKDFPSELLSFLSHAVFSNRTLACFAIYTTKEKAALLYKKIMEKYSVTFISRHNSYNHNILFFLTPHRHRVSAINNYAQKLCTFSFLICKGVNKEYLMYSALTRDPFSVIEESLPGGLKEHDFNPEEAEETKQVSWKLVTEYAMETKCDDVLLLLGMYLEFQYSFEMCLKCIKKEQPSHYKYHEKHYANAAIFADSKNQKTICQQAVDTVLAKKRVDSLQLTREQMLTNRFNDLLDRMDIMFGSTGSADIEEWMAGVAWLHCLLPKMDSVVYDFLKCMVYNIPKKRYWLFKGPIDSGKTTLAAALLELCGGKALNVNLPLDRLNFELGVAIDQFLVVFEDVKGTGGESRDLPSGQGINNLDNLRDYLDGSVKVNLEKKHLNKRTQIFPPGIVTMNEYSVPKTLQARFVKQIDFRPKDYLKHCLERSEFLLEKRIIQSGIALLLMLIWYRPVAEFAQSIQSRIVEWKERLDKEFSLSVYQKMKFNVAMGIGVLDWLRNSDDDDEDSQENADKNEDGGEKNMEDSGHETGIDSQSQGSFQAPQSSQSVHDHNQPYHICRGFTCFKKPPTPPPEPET
Protocol: A method for measuring ATP hydrolysis involves incubating T-ag with a ^32P-labeled ATP, cross-linking with gluteraldehyde, removing unincorporated nucleotides by passing the reaction products over a Bio-Spin P-30 column, drying the eluate in a Speedvac, resuspending the samples in formic acid, and performing thin layer chromatography on PEI (polyethyleneimine) plates. Using autoradiography, the amount of ATP, ADP and AMP associated with T-ag was determined.

[2] = tested on: 64 bp SV40 core origin (SEQ ID NO: 24); assay: Peptide band shift (EMSA without T-ag), core origin; format: binding; conditions: for Peptide/DNA complex formation in peptide band shift: SV40 core origin, 13-mer set at 1 mM final concentration (20 nmoles); for DNA binding seen in EMSA without cross-linking: absence of cross-linking with glutaraldehyde
Protocol: (§1) Electrophoretic mobility shift assays (EMSA). Double stranded oligonucleotides, ^32P labeled at 5′ termini, were prepared using standard procedures (Sambrook, J., et al., 1989, Cold Spring Harbor Laboratory, Cold Spring Harbor, N.Y.; Sreekumar, K. A., et al., 2000, p. 49-67; In, L. Raptis (ed.), Methods in Molecular Biology; SV40 Protocols; Humana Press; Totowa, N.J.). EMSA rections were conducted using conditions for SV40 in vitro replication (Wobbe, C. R., et al., 1985, Proc. Natl. Acad. Sci. USA 82:5710-571 4). The reactions (20 μl) contained 7 mM MgCl2, 0.5 mM DTT, 4 mM AMP-PNP, 40 mM creatine phosphate (pH 7.6), 0.48 μg of creatine phosphate kinase, 5 μg of bovine serum albumin, 0.8 μg of Hae III-digested pBR322 ([…]; used as a nonspecific competitor), about 25 fmol of double stranded oligonucleotide, T-ag and the indicated amounts of peptide. After a 20-min incubation at 37° C., glutaraldehyde (0.1 % final concentration) was added and the reaction products were further incubated for 5 min. The reactions were stopped by the addition of 5 μl of 6× loading dye II (15% Ficoll, 0.25% bromophenol blue, and 0.25% xylene cyanol; Sambrook, J., et al., 1989, Cold Spring Harbor Laboratory, Cold Spring Harbor, N.Y.) to the reaction mixtures. Samples containing T-ag were applied to 3.5 to 12% gradient polyacrylamide gels and electrophoresed in 0.5% Tris-borate-EDTA (TBE) pH 8.4 for about 1.5 h (10 watts).
[…] Moreover, the samples were loaded on 8% polyacryamide gels and electrophoresed in 0.5% TBE pH 8.4 for about 3h (about 200 volts). The gels were dried on Whatman 3 MM paper, subjected to autoradiography and quantitated using a Molecular Dynamics PhosphorImager (Sunnyvale, Calif.).

[3] = molecular target: T2, T-ag oligomerization on 64-bp oligonucleotide containing the SV40 core origin (Simian virus 40, UniProt P03070); format: biochemical; conditions: T-ag 6 pmol; for Effect on T-ag oligomerization, mutant set (FIG. 11 Panel B): 64-bp SV40 core origin, peptide concentration not given; for Effect on T-ag oligomerization (hexamer and double hexamer formation): peptide final concentration 1 mM (20 nmoles)
T2 construct: made in house
T2 sequence (P03070 whole entry): as above
Protocol: as §1

[4] = tested on: 64 bp enhancer control (SEQ ID NO: 29); assay: Peptide band shift (EMSA without T-ag), control oligonucleotide; format: binding; conditions: 64 bp enhancer control oligonucleotide
Protocol: as §1
Peptide based band shift reactions were identical to those described above except that T-ag was omitted from the reactions and the final glutaraldehyde concentration was reduced to 0.05 %. Moreover, the samples were loaded on 8% polyacryamide gels and electrophoresed in 0.5% TBE pH 8.4 for about 3h (about 200 volts). The gels were dried on Whatman 3 MM paper, subjected to autoradiography and quantitated using a Molecular Dynamics PhosphorImager (Sunnyvale, Calif.).

[5] = tested on: SV40 DNA replication in HeLa human cell crude extracts; assay: SV40 in vitro replication reaction; format: biochemical; set-up: Amount of peptide that completely blocks replication: unit not given here; conditions: for Inhibition of SV40 in vitro DNA replication: 30 μl reactions, with T-ag
Protocol: DNA replication reactions. SV40 in vitro replication reactions were conducted as described by Wobbe et al 1985, Proc. Natl. Acad. Sci. USA 82:5710-5714 (see also, Bullock, P. A., et al., 1998, p. 223-243. In S. Cotterill (ed.), Eukaryotic DNA Replication; A practical Approach, Oxford University Press, Oxford). Reaction mixtures (30 μl) contained 7 mM MgCl2, 0.5 mM DTT, 4 mM ATP, 40 mM creatine phosphate (di-Tris salt pH7.7), 1.4 μg of creatine phosphokinase, 12.5 μg/ml pSV01ΔEP, dATP, dGTP, and dTTP (100 μM each), CTP, GTP, and UTP (200 μM each), [α-^32p] dCTP (20 μM, about 5 cpm/fmol) and the indicated peptides.

single-stranded DNA = assay: Binding of NLS peptides to single-stranded DNA
Protocol: (§2) In the examples that follow, peptides were designed and synthesized to contain NLS regions from a variety of viral and human proteins, in particular, T-ag of SV40, and each of the proteins encoded by the human tumor suppressor p53 gene (SEQ ID NO: 1), the E1 protein encoded by bovine papillomavirus (SEQ ID NO: 2), and a set of control peptides. Binding assays of these peptides were performed with a 64 bp oligonucleotide derived from the SV40 core origin (SEQ ID NO: 24). […] Single stranded DNA was bound poorly by p53 and E1 NLS region peptides.

double-stranded DNA = assay: Binding of NLS peptides to double-stranded DNA
Protocol: as §2

Sequence: ADSQHSTPPKKKR (Virus; Host Macaca mulatta; DOMAIN (1)..(13) Domain of SV40 T-Antigen Protein (118)...(130)) [peptide 213, 13-mer of SV40 T-ag centered on Thr124]
- Binding to DNA in filter binding assay ([1]; high peptide concentrations (1 mM and 2 mM)): saturation of binding was observed
- Binding to DNA in filter binding assay ([1]; peptide 0.5 mM): bound relatively poorly
- Binding to DNA in filter binding assay ([1]; peptide 0.5 mM to 2 mM, replication conditions, pBR322 competitor): binds to DNA
- Binding to DNA in filter binding assay ([1]; peptide 0.5 mM to 2 mM, replication conditions, pBR322 competitor, listed as peptide T-213): able to bind to DNA
- Effect on ATPase of T-ag (T-ag helicase ATPase): inhibited the ATPase of T-ag
- Peptide/DNA complex formation in peptide band shift [2]: found to bind to DNA
- Peptide/DNA complex formation in peptide band shift ([2]; listed as T-213): Mobility shifts are seen
- Peptide/DNA complex formation in peptide band shift ([2]; listed as peptide T-213): binds to DNA
- Effect on T-ag oligomerization, mutant set (FIG. 11 Panel B) ([3]; listed as SEQ ID NO: 3): complete inhibition of oligomerization
- Effect on T-ag oligomerization, mutant set (FIG. 11 Panel B) ([3]; listed as peptide T-213): inhibited T-ag oligomerization
- Effect on T-ag oligomerization ([3]; peptide final concentration 0.5 mM): inhibited T-ag assembly events
- Effect on T-ag oligomerization (hexamer and double hexamer formation) [3]: inhibited both hexamer and double hexamer formation
- Effect on T-ag oligomerization (hexamer and double hexamer formation) ([3]; listed as peptide T-213): formation of the standard hexamer and double hexamer protein was inhibited
- Peptide/DNA complex formation in peptide band shift [4]: bound to the 64 bp enhancer control
- Peptide/DNA complex formation in peptide band shift ([4]; listed as peptide T-213): able to bind to the 64-bp enhancer control

Sequence: KRKVLGSSQNSSGSEASETPVKRRK [BP-E125]
- Binding to DNA in filter binding assay, E1 peptides ([1]; low peptide concentration 0.25 mM): better DNA binder than peptide 217
- Binding to DNA in filter binding assay, E1 peptides ([1]; low peptide concentration 0.25 mM, listed as peptide E1-P225): binds at a relatively low concentration of peptide
- Binding to DNA in filter binding assay, E1 peptides ([1]; peptide 0.25 mM and 0.5 mM): binds to DNA at a lower concentration than does peptide 217
- Binding to DNA in filter binding assay, E1 peptides ([1]; peptide 0.25 mM and 0.5 mM, listed as BP-E1): bound to DNA
- Binding to DNA in filter binding assay, E1 peptides ([1]; peptide 0.25 mM and 0.5 mM, listed as SEQ ID NO: 2): best DNA binder
- Binding to DNA in filter binding assay, E1 peptides ([1]; peptide 0.25 mM and 0.5 mM, listed as peptide E1-P225): found to bind to DNA
- Effect on ATPase of T-ag (T-ag helicase ATPase): blocked the degradation of ATP by T-ag
- DNA binding seen in EMSA without cross-linking ([2]; listed as SEQ ID NO: 2): does not require cross-linking with glutaraldehyde
- DNA binding seen in EMSA without cross-linking ([2]; listed as peptide E1-225): successful EMSA experiments
- Concentration of peptide that completely blocked viral DNA replication [5]: about 600 μM
- Inhibition of SV40 in vitro DNA replication [5]: at all concentrations tested inhibited; also recorded: inhibits in vitro DNA replication reactions
- Inhibition of SV40 in vitro DNA replication ([5]; listed as SEQ ID NO: 2): best inhibitor of DNA replication
- Amount of peptide that completely blocks replication ([5]; added to a reaction): 20
- Binding to single-stranded DNA (single-stranded DNA): bound poorly
- Binding to double-stranded DNA (double-stranded DNA): bind to double-stranded DNA

Sequence: TKRALPNNTSSSPQPKKKPL (DOMAIN (1)..(20) Domain of p53 (304)...(323); listed as Homo sapiens) [SEQ ID NO: 1, peptide from the NLS/Cdk region of human p53]
- Binding to single-stranded DNA (single-stranded DNA): bound poorly; also recorded: not single-stranded DNA
- Binding to double-stranded DNA (double-stranded DNA): bind to double-stranded DNA; also recorded: binds to double-stranded
